System in the first series: not listed separately
The experiment in a line: hydrophobic sand humic acid removal test. The note with it: formulation diluted 42 parts water:1 part; 2 ml on 3 g humic acid coated sand; dried 60° C. 24 hours; 10 ml distilled water passed through; absorbance at 620 nm vs humic acid calibration curve. On the procedure: Initially, a calibrated stock solution measurement curve for humic acid itself was generated for comparison purposes with tested humic acid removal samples. Thus, a 5000 ppm Humic Acid (purchased from Fluka Chemika) stock solution was prepared by dissolving 0.5 grams of Humic acid in 100 milliliters of water. Further standard solutions were prepared by serial dilution of the 5000 ppm sandard stock solution. The absorbance of each solution was measured at 620 nm on a Beckman Model DU 650 Spectrophotometer and a plot of absorbance versus concentration provided the Humic
The Examples, listed above, both inventive and comparative, were then each individually diluted with water (42 parts water:1 part example formulation). Two milliliters of each diluted example was then placed into the open end of a 19 inch clear plastic tube containing 3 grams of the above specific humic acid coated sand. One end was then plugged by a two-layer cheese cloth square of 1.5×1.5 cm and then the tube was situated vertically with the plugged end lower. The solutions were allowed to pass through the sand and were collected after passing through the plug. The sand was then placed in an oven at 60° C. for 24 hours to remove any residual moisture. The sand (3 grams) was again packed into a 19 inch clear plastic tube plugged at one end with the cheese cloth plug. Ten ml of distilled water was then passed through the sand and collected. The absorbance at 620 nm of the distilled water sample was then measured and compared to the humic acid calibration curve (from the Table, above) to determine the amount of humic acid removed from the coated sand. This test is, for the context of this invention, is the definition of “hydrophobic sand humic acid removal test”.
Turning to `O=C([O-])CCCCCCCCC(=O)[O-].[K+].[K+]` [Example 4, Potassium sebacate], the “ppm Removed (Removal of Humic acid from Sand)” value (from here on “ppm Removed”) came to 789.78 ppm.

With “fully neutralized n-octenyl succinic anhydride sulfanilic sodium salt [Example 9]”, the “ppm Removed” value is listed as 1015.15 ppm.

With TPSA Dipotassium Salt [Example 6], the “ppm Removed” value worked out at 837.52 ppm.

Take TPSA Di-TEA Salt [Example 8]: the “ppm Removed” value is listed as 246.46 ppm.

For the molecule TPSA Mono-TEA Salt [Example 7], the “ppm Removed” value amounted to 872.40 ppm.

The next series has as its system grass.
Experiment: not given
The note with it: in vivo; cited from earlier work.
Turning to `[Na+].[OH-]` [sodium hydroxide], the phytotoxicity to grass entry is on record as “highly phytotoxic”.
